From patent publication US20130289070A1, “Use of Levocabastine for Modulating Generation of Pro-Inflammatory Cytokines” (Bausch & Lomb Incorporated, priority 2007, published 2013)

Test system: EoL-1 (human eosinophilic leukaemia cell line) cells
Experiment: TNF-α-induced cytokine release, EoL-1 cells differentiated with PMA (Luminex)
Assay type: cell-based
Design: key to IL-1α (PMA), p of decrement / IL-1β (PMA), p of decrement / IL-1ra (PMA), p of decrement / IL-5 (PMA), p of decrement / IL-7 (PMA), p of decrement / IL-8 (PMA), p of decrement / IP-10 (PMA), p of decrement / MCP-1 (PMA), p of decrement / MIP-1β (PMA), p of decrement / RANTES (PMA), p of decrement / VEGF (PMA), p of decrement / Fractalkine (PMA), p of decrement / MIP-1α (PMA), p of decrement: ns = non significant
Description: EoL-1 (human eosinophilic leukaemia cell line) cells (Saito et al., 1985; Mayumi, 1992) were maintained in RPMI-1640 medium with L-glutamine supplemented with 10% (v/v) FBS at 37° C. in a humidified atmosphere with 5% CO2. Where indicated, 24 h before the experiment 25 ng/mL PMA ((phorbol 12-myristate 13-acetate, purchased from Sigma Aldrich) was added to the medium to induce eosinophil granulation and differentiation (Ohtsu et al., 1993; Zimmermann et al., 2000).
Half-million cells were aliquoted per point in a 24 well plate; each experiment was performed in triplicate and carried out in parallel with eosinophils differentiated and non differentiated with PMA (25 ng/mL, 24 h). Cells were suspended in low serum medium (RPMI-1640, 0.1% (v/v) FBS). TNF-α was used to induce cytokine secretion as previously described by Steube et al. (2000), and the net release was obtained by comparison to the basal (non-TNF-α treated). In the first experiment we evaluated the concentration and time relation between TNF-α stimulation and cytokine release. Therefore, 5, 10, and 25 ng/mL of TNF-α was administered to the cells at 0, ½, 1, 2, 3, 6, 12 and 24 h (data not shown). An aliquot of 150 μL of supernate was collected for cytokines' analysis. […] Differentiated and non-differentiated EoL-1 cells were exposed from 0.1 to 2.3 mM levocabastine ([…]Levocabastine 0.05% solution eye drops containing cyclodextrins, without benzalkonium chloride), and aliquots of the supernates were collected after 12 and 24 h. The content of cytokines at time zero was estimated by treating the cells with 400 nM calcimycin (A-23187), which is a cytolytic agent that frees all the mediators from the cytoplasmic compartment. In addition, for each experiment we tested the effect of the vehicle, which was added to the wells in a concentration equal to the maximum amount used for drug dilution.
Samples (supernates 12 and 24 h) in triplicate were analyzed using Luminex 200™ (Luminex, Austin, Tex.) and Beadview software v1.0 (Upstate Cell Signaling Solutions, Temecula, Calif.).
All data are presented as mean±SEM for the indicated number of experiments. Statistical significance was determined by Newman-Keuls test after ANOVA using GraphPad Prism (version 3.0; GraphPad Software Inc., San Diego, Calif., USA). P-values<0.05 were considered to be significant.

[1] = 12 h, TNF-α 5 ng + Levocabastine 2 mM vs TNF-α
[2] = 12 h, TNF-α 10 ng + Levocabastine 2 mM vs TNF-α
[3] = 12 h, TNF-α 20 ng + Levocabastine 2 mM vs TNF-α
[4] = 12 h, TNF-α 5, 10, 20 ng + Levocabastine 2 mM vs TNF-α
[5] = 24 h, FN + Levocabastine 2 mM vs FN
[6] = 24 h, Levocabastine 2 mM vs TNF-α

SMILES: C[C@@H]1CN([C@H]2CC[C@](C#N)(c3ccc(F)cc3)CC2)CC[C@]1(C(=O)O)c1ccccc1 [Levocabastine, levocabastine]
- release of IL-8 induced by TNF-α (2 mM, TNF-α 5, 10 and 20 ng, 24 h, differentiated with PMA (FIG. 9)): capable of reducing the release
- release of IL-1-ra induced by TNF-α (0.1, 0.5 and 1.0 mM, 12 h, differentiated with PMA (FIG. 2)): capable to prevent the release
- release of IL-1β induced by TNF-α (0.1, 0.5 and 1.0 mM, 12 h, differentiated with PMA (FIG. 3)): capable to prevent the release
- Fractalkine (PMA), p of decrement [1]: ns
- G-CSF (PMA), p of decrement [1]: ns
- GM-CSF (PMA), p of decrement [1]: ns
- IL-1β (PMA), p of decrement [1]: ns
- IL-5 (PMA), p of decrement [1]: ns
- IL-6 (PMA), p of decrement [1]: ns
- IL-7 (PMA), p of decrement [1]: ns
- IL-8 (PMA), p of decrement [1]: ns
- IL-10 (PMA), p of decrement [1]: ns
- IL-12p40 (PMA), p of decrement [1]: P < 0.001
- IP-10 (PMA), p of decrement [1]: ns
- MCP-1 (PMA), p of decrement [1]: ns
- MIP-1α (PMA), p of decrement [1]: ns
- TGF-α (PMA), p of decrement [1]: ns
- VEGF (PMA), p of decrement [1]: P < 0.01
- Fractalkine (PMA), p of decrement [2]: ns
- G-CSF (PMA), p of decrement [2]: ns
- GM-CSF (PMA), p of decrement [2]: ns
- IL-1β (PMA), p of decrement [2]: ns
- IL-5 (PMA), p of decrement [2]: ns
- IL-6 (PMA), p of decrement [2]: ns
- IL-7 (PMA), p of decrement [2]: ns
- IL-8 (PMA), p of decrement [2]: ns
- IL-10 (PMA), p of decrement [2]: ns
- IL-12p40 (PMA), p of decrement [2]: P < 0.001
- IP-10 (PMA), p of decrement [2]: ns
- MCP-1 (PMA), p of decrement [2]: ns
- MIP-1α (PMA), p of decrement [2]: ns
- TGF-α (PMA), p of decrement [2]: ns
- VEGF (PMA), p of decrement [2]: ns
- Fractalkine (PMA), p of decrement [3]: ns
- G-CSF (PMA), p of decrement [3]: ns
- GM-CSF (PMA), p of decrement [3]: ns
- IL-1β (PMA), p of decrement [3]: ns
- IL-5 (PMA), p of decrement [3]: ns
- IL-6 (PMA), p of decrement [3]: ns
- IL-7 (PMA), p of decrement [3]: ns
- IL-8 (PMA), p of decrement [3]: ns
- IL-10 (PMA), p of decrement [3]: ns
- IL-12p40 (PMA), p of decrement [3]: P < 0.001
- IP-10 (PMA), p of decrement [3]: ns
- MCP-1 (PMA), p of decrement [3]: ns
- MIP-1α (PMA), p of decrement [3]: ns
- TGF-α (PMA), p of decrement [3]: ns
- VEGF (PMA), p of decrement [3]: ns
- IL-1ra (PMA), p of decrement [4]: increase of cytokine secretion
- IL-1α (PMA), p of decrement [4]: increase of cytokine secretion
- MIP-1β (PMA), p of decrement [4]: increase of cytokine secretion
- RANTES (PMA), p of decrement [4]: increase of cytokine secretion
- Fractalkine (PMA), p of decrement (12 h, TNF-α vs Lev 0.1 mM): ns
- IL-1ra (PMA), p of decrement (12 h, TNF-α vs Lev 0.1 mM): p < 0.01
- IL-1α (PMA), p of decrement (12 h, TNF-α vs Lev 0.1 mM): ns
- IL-1β (PMA), p of decrement (12 h, TNF-α vs Lev 0.1 mM): ns
- IL-5 (PMA), p of decrement (12 h, TNF-α vs Lev 0.1 mM): ns
- IL-7 (PMA), p of decrement (12 h, TNF-α vs Lev 0.1 mM): ns
- IL-8 (PMA), p of decrement (12 h, TNF-α vs Lev 0.1 mM): ns
- IP-10 (PMA), p of decrement (12 h, TNF-α vs Lev 0.1 mM): ns
- MCP-1 (PMA), p of decrement (12 h, TNF-α vs Lev 0.1 mM): ns
- MIP-1β (PMA), p of decrement (12 h, TNF-α vs Lev 0.1 mM): ns
- RANTES (PMA), p of decrement (12 h, TNF-α vs Lev 0.1 mM): ns
- VEGF (PMA), p of decrement (12 h, TNF-α vs Lev 0.1 mM): ns
- Fractalkine (PMA), p of decrement (12 h, TNF-α vs Lev 0.5 mM): ns
- IL-1ra (PMA), p of decrement (12 h, TNF-α vs Lev 0.5 mM): p < 0.001
- IL-1α (PMA), p of decrement (12 h, TNF-α vs Lev 0.5 mM): ns
- IL-1β (PMA), p of decrement (12 h, TNF-α vs Lev 0.5 mM): ns
- IL-5 (PMA), p of decrement (12 h, TNF-α vs Lev 0.5 mM): ns
- IL-7 (PMA), p of decrement (12 h, TNF-α vs Lev 0.5 mM): ns
- IL-8 (PMA), p of decrement (12 h, TNF-α vs Lev 0.5 mM): ns
- IP-10 (PMA), p of decrement (12 h, TNF-α vs Lev 0.5 mM): p < 0.01
- MCP-1 (PMA), p of decrement (12 h, TNF-α vs Lev 0.5 mM): ns
- MIP-1β (PMA), p of decrement (12 h, TNF-α vs Lev 0.5 mM): ns
- RANTES (PMA), p of decrement (12 h, TNF-α vs Lev 0.5 mM): ns
- VEGF (PMA), p of decrement (12 h, TNF-α vs Lev 0.5 mM): ns
- Fractalkine (PMA), p of decrement (12 h, TNF-α vs Lev 1.0 mM): ns
- IL-1ra (PMA), p of decrement (12 h, TNF-α vs Lev 1.0 mM): p < 0.001
- IL-1α (PMA), p of decrement (12 h, TNF-α vs Lev 1.0 mM): ns
- IL-1β (PMA), p of decrement (12 h, TNF-α vs Lev 1.0 mM): ns
- IL-5 (PMA), p of decrement (12 h, TNF-α vs Lev 1.0 mM): ns
- IL-7 (PMA), p of decrement (12 h, TNF-α vs Lev 1.0 mM): ns
- IL-8 (PMA), p of decrement (12 h, TNF-α vs Lev 1.0 mM): ns
- IP-10 (PMA), p of decrement (12 h, TNF-α vs Lev 1.0 mM): p < 0.05
- MCP-1 (PMA), p of decrement (12 h, TNF-α vs Lev 1.0 mM): ns
- MIP-1β (PMA), p of decrement (12 h, TNF-α vs Lev 1.0 mM): ns
- RANTES (PMA), p of decrement (12 h, TNF-α vs Lev 1.0 mM): ns
- VEGF (PMA), p of decrement (12 h, TNF-α vs Lev 1.0 mM): p < 0.05
- Fractalkine (PMA), p of decrement (12 h, TNF-α vs Lev 2.3 mM): ns
- IL-1ra (PMA), p of decrement (12 h, TNF-α vs Lev 2.3 mM): ns
- IL-1α (PMA), p of decrement (12 h, TNF-α vs Lev 2.3 mM): ns
- IL-1β (PMA), p of decrement (12 h, TNF-α vs Lev 2.3 mM): ns
- IL-5 (PMA), p of decrement (12 h, TNF-α vs Lev 2.3 mM): ns
- IL-7 (PMA), p of decrement (12 h, TNF-α vs Lev 2.3 mM): ns
- IL-8 (PMA), p of decrement (12 h, TNF-α vs Lev 2.3 mM): ns
- IP-10 (PMA), p of decrement (12 h, TNF-α vs Lev 2.3 mM): ns
- MCP-1 (PMA), p of decrement (12 h, TNF-α vs Lev 2.3 mM): ns
- MIP-1β (PMA), p of decrement (12 h, TNF-α vs Lev 2.3 mM): ns
- RANTES (PMA), p of decrement (12 h, TNF-α vs Lev 2.3 mM): ns
- VEGF (PMA), p of decrement (12 h, TNF-α vs Lev 2.3 mM): p < 0.01
- MIP-1α (PMA), change of secretion (12 h, TNF-α vs Lev 0.1-2.3 mM): concentration dependent increase of
- MIP-1α (PMA), p of increase (12 h, TNF-α vs Lev 0.1-2.3 mM): cytokine secretion p < 0.001
- Fractalkine (PMA), p of decrement [5]: Increase
- G-CSF (PMA), p of decrement [5]: Increase
- GM-CSF (PMA), p of decrement [5]: ns
- IL-1ra (PMA), p of decrement [5]: Increase
- IL-1α (PMA), p of decrement [5]: Increase
- IL-1β (PMA), p of decrement [5]: ns
- IL-5 (PMA), p of decrement [5]: ns
- IL-6 (PMA), p of decrement [5]: ns
- IL-7 (PMA), p of decrement [5]: Increase
- IL-8 (PMA), p of decrement [5]: Increase
- IL-10 (PMA), p of decrement [5]: ns
- IL-12p40 (PMA), p of decrement [5]: P < 0.01
- IP-10 (PMA), p of decrement [5]: ns
- MCP-1 (PMA), p of decrement [5]: Increase
- MIP-1α (PMA), p of decrement [5]: Increase
- MIP-1β (PMA), p of decrement [5]: Increase
- RANTES (PMA), p of decrement [5]: Increase
- TGF-α (PMA), p of decrement [5]: ns
- VEGF (PMA), p of decrement [5]: P < 0.001
- Fractalkine (PMA), p of decrement [6]: ns
- G-CSF (PMA), p of decrement [6]: ns
- GM-CSF (PMA), p of decrement [6]: ns
- IL-1ra (PMA), p of decrement [6]: Increase
- IL-1α (PMA), p of decrement [6]: Increase
- IL-1β (PMA), p of decrement [6]: ns
- IL-5 (PMA), p of decrement [6]: ns
- IL-6 (PMA), p of decrement [6]: ns
- IL-7 (PMA), p of decrement [6]: ns
- IL-8 (PMA), p of decrement [6]: Increase
- IL-10 (PMA), p of decrement [6]: ns
